Test results: patent US20210130308A1, “MODULATORS OF EUKARYOTIC INITIATION FACTOR 2” (Denali Therapeutics Inc., priority 2018, published 2021)

System: ATF4 translation (ISR pathway activation)
Assay: ATF4 Nano Luciferase reporter integrated stress response (ISR) assay in H4 ATF4-NLuc (clone 17) cells
Format: cell-based, human
Details: H4 ATF4-NLuc (clone 17) cells; compounds 30 minutes at 37 degree Celsius, then 50 um sodium arsenite for 6 additional hours; luminescence readout; read-out: IC50
Description: Cellular stress leads to activation of the integrated stress response pathway through one of four eukaryotic initiation factor 2α kinases and halts global translation, while allowing for the translation of select transcripts like ATF4 (activating transcription factor 4) that are important for the response to cellular stress. During normal conditions, small open reading frames (ORFs) in the 5′ UTR of ATF4 occupy the ribosome and prevent translation of the coding sequence of ATF4. During stress conditions however, the ribosome scans past these upstream ORFs and preferentially begins translation at the coding sequence of ATF4. In this way, the translation, and thus protein level of ATF4 is a readout of ISR pathway activation. Thus, a fusion of the uORFs and the beginning of the coding sequence of ATF to a common cellular reporter like nano-luciferase allows for a sensitive and high-throughput readout of ISR pathway activity.
Compounds as provided herein were tested in the following assay. The ATF4 Nano Luciferase reporter was constructed by fusing the human full length 5′ untranslated region (5′-UTR) and a small portion of the coding sequence of the ATF4 gene upstream of the Nano Luciferase (NLuc) coding sequence lacking it's start codon. Specifically, nucleotides +1 through +364 (relative to the transcriptional start site) of ATF4 transcript variant 2 (NCBI NM_182810.2) flanked 5′ by EcoRI and 3′ by BamHI restriction enzyme sites were synthesized and cloned into the EcoRI/BamHI cloning sites of pLVX-EF1a-IRES-Puro lentivirus vector (Clontech). […]. H4 cells were selected with […] Puromycin, and clonal cell lines generated by limiting dilution. We utilized this cell line to generate an integrated stress response (ISR) assay to evaluate the activity of ISR pathway inhibitors via luminescence readout. The H4 ATF4-NLuc (clone 17) cell line is plated at a density of […] in 96-well or 384-well respectively in DMEM+10% fetal bovine serum. 24-hours later test compounds diluted in dimethyl sulfoxide (DMSO) are added for 30 minutes at 37 degree Celsius, followed by ISR pathway activation with 50 um sodium arsenite aqueous solution for 6 additional hours. Nano Glo luciferase reagent (N1150, Promega) is added according to manufacturer instructions and the luminescence signal (corresponding to the level of ATF4 translation and thus ISR pathway activation) is read with a standard plate reader with luminescence detection capabilities.
In the table below, activity of the tested compounds is provided in Table 3 as follows: +++=IC50<1 μM; ++=IC50 1-10 μM; +=IC50>10 μM.

Structure (SMILES) | IC50
O=C(COc1ccc(Cl)c(F)c1)NC1CC(OCCOC2CC(OC(F)(F)F)C2)C1 (single isomer, unassigned) [42 (isomer 2), 2-(4-chloro-3-fluoro-phenoxy)-N-[3-[2-[3-cis-(trifluoromethoxy)cyclobutoxy]ethoxy]-trans-cyclobutyl]acetamide] | < 1000 nM
O=C(COC1CC(F)C1)NC12CC(NC(=O)c3ccc4cc(C(F)(F)F)ccc4n3)(C1)C2 (stereo not drawn) [Example 54, N-[1-[[2-(3-cis-fluorocyclobutoxy)acetyl]amino]-3-bicyclo[1.1.1]pentanyl]-6-(trifluoromethyl)quinoline-2-carboxamide] | < 1000 nM

Same assay, conditions: Homo sapiens, 0.5 h

Structure (SMILES) | IC50
O=C(COC1CCN(CC(F)(F)F)C1)NC12CC(NC(=O)c3ccc4cc(C(F)(F)F)ccc4n3)(C1)C2 (centres unmarked) [Example 73] | < 1000 nM
O=C(COc1cccc(Cl)c1F)NC12CC(NC(=O)COC3CCC3)(C1)C2 [Example 13, 2-(3-chloro-2-fluoro-phenoxy)-N-[3-[[2-(cyclobutoxy)acetyl]amino]-1-bicyclo[1.1.1]pentanyl]acetamide] | 1000 to 10000 nM
O=C(COc1ccc(Cl)cc1)NC1CC2CN(c3cnn([C@H]4C[C@@H](OC(F)(F)F)C4)c3)CC2C1 (stereo partly drawn) [Example 61, 2-(4-chlorophenoxy)-N-(2-(1-(3-cis-(trifluoromethoxy)cyclobutyl)-1H-pyrazol-4-yl)octahydrocyclopenta[c]pyrrol-5-yl)acetamide] | > 10000 nM
O=C(COc1ccc(Cl)cc1)N[C@H]1CC[C@H](c2nnc(C3CC(OC(F)(F)F)C3)o2)CC1 (stereo partly drawn) [Example 29, 2-(4-chlorophenoxy)-N-[4-[5-[3-cis-(trifluoromethoxy)cyclobutyl]-1,3,4-oxadiazol-2-yl]cyclohexyl]acetamide] | < 1000 nM
O=C(COc1ccc(Cl)cc1)N[C@H]1C[C@@H]2CN(C(=O)COC3CC(OC(F)(F)F)C3)C[C@@H]2C1 (some centres unmarked) [Example 59] | < 1000 nM
O=C(COC1CC(OC(F)(F)F)C1)NC1CCN(c2nnc(-c3ccc(Cl)cc3)o2)CC1 (stereo not drawn) [Example 44, N-[1-[5-(4-chlorophenyl)-1,3,4-oxadiazol-2-yl]-4-piperidyl]-2-[3-cis-(trifluoromethoxy)cyclobutoxy]acetamide] | < 1000 nM

Same assay, conditions: Homo sapiens, 0.5 h; H4 ATF4-NLuc (clone 17) cells; compounds 30 minutes at 37 degree Celsius, then 50 um sodium arsenite for 6 additional hours; luminescence readout; read-out: IC50

Structure (SMILES) | IC50
O=C(COC1CC(OC(F)(F)F)C1)NC12CC(NC(=O)c3nc4cc(Cl)ccc4s3)(C1)C2 (stereo not drawn) [Example 52, 5-chloro-N-[1-[[2-[3-cis-(trifluoromethoxy)cyclobutoxy]acetyl]amino]-3-bicyclo[1.1.1]pentanyl]-1,3-benzothiazole-2-carboxamide] | < 1000 nM
O=C(COc1ccc(Cl)c(F)c1)NC12CC(NC(=O)COC3CCC3)(C1)C2 [Example 10, 2-(4-chloro-3-fluorophenoxy)-N-(3-(2-cyclobutoxyacetamido)bicyclo[1.1.1]pentan-1-yl)acetamide] | < 1000 nM
O=C(COc1ccc(Cl)c(F)c1)NC1CC2(C1)CN(C(=O)COC1CCC1)C2 [Example 19, 2-(4-chloro-3-fluoro-phenoxy)-N-[2-[2-(cyclobutoxy)acetyl]-2-azaspiro[3.3]heptan-6-yl]acetamide] | < 1000 nM
O=C(COC1CC(OC(F)(F)F)C1)NC12CC(NC(=O)c3ccc4cc(F)ccc4n3)(C1)C2 (stereo not drawn) [Example 66, 6-fluoro-N-[1-[[2-[3-cis-(trifluoromethoxy)cyclobutoxy]acetyl]amino]-3-bicyclo[1.1.1]pentanyl]quinoline-2-carboxamide] | < 1000 nM
O=C(COc1ccc(Cl)c(F)c1)NC12CC(NC(=O)CO[C@H]3C[C@@H](OC(F)(F)F)C3)(C1)C2 [Example 37, 2-(4-chloro-3-fluoro-phenoxy)-N-[3-[[2-[3-cis-(trifluoromethoxy)cyclobutoxy]acetyl]amino]-1-bicyclo[1.1.1]pentanyl]acetamide] | < 1000 nM
O=C(COC1CC(OC(F)(F)F)C1)NC1CN(c2nnc(COc3ccc(Cl)c(F)c3)o2)C1 (stereo not drawn) [Example 22, N-[1-[5-[(4-chloro-3-fluoro-phenoxy)methyl]-1,3,4-oxadiazol-2-yl]azetidin-3-yl]-2-[3-cis-(trifluoromethoxy)cyclobutoxy]acetamide] | < 1000 nM
N#CC1CC(OCC(=O)N2CCC3(CC2)CC(NC(=O)COc2ccc(Cl)c(F)c2)C3)C1 (centres unmarked) [Example 14, 2-(4-chloro-3-fluoro-phenoxy)-N-[7-[2-(3-cyanocyclobutoxy)acetyl]-7-azaspiro[3.5]nonan-2-yl]acetamide] | < 1000 nM
O=C(COC1CC(OC(F)(F)F)C1)NC12CC(NC(=O)c3ccc4cc(F)c(F)cc4n3)(C1)C2 (stereo not drawn) [Example 69, 6,7-difluoro-N-(3-(2-(3-cis-(trifluoromethoxy)cyclobutoxy)acetamido)bicyclo[1.1.1]pentan-1-yl)quinoline-2-carboxamide] | < 1000 nM
O=C(COc1ccc(C(F)(F)F)cc1)NC12CC(N3CCN(C4CC(OC(F)(F)F)C4)C3=O)(C1)C2 (centres unmarked) [Example 74] | < 1000 nM
O=C(COc1ccc(Cl)c(F)c1)NC1CCN(CCOC2CC(OC(F)(F)F)C2)CC1(F)F (stereo not drawn) [Example 47, 2-(4-chloro-3-fluoro-phenoxy)-N-[3,3-difluoro-1-[2-[3-cis-(trifluoromethoxy)cyclobutoxy]ethyl]-4-piperidyl]acetamide] | < 1000 nM
O=C(COc1ccc(Cl)c(F)c1)NC1CC2(C1)CN(C(=O)COC1CC(OC(F)(F)F)C1)C2 (stereo not drawn) [Example 21, 2-(4-chloro-3-fluoro-phenoxy)-N-[2-[2-[3-cis-(trifluoromethoxy)cyclobutoxy]acetyl]-2-azaspiro[3.3]heptan-6-yl]acetamide] | < 1000 nM
O=C(CO[C@H]1C[C@@H](OC(F)(F)F)C1)NC1CN(C(=O)COC2CC(OC(F)(F)F)C2)C1 (stereo partly drawn) [Example 25, 2-[3-cis (trifluoromethoxy)cyclobutoxy]-N-[1-[2-[3-cis-(trifluoromethoxy)cyclobutoxy]acetyl]azetidin-3-yl]acetamide] | 1000 to 10000 nM
CC1(C)CC(OCC(=O)NC23CC(NC(=O)COc4ccc(Cl)cc4)(C2)C3)C1 [Example 5, 2-(4-chlorophenoxy)-N-(3-(2-(3,3-dimethylcyclobutoxy)acetamido)bicyclo[1.1.1]pentan-1-yl)acetamide] | < 1000 nM
O=C(COCC1CC1(F)F)NC12CC(NC(=O)c3ccc4cc(C(F)(F)F)ccc4n3)(C1)C2 (centres unmarked) [Example 55, N-[1-[[2-[(2,2-difluorocyclopropyl)methoxy]acetyl]amino]-3-bicyclo[1.1.1]pentanyl]-6-(trifluoromethyl)quinoline-2-carboxamide] | < 1000 nM
CO[C@@H]1CN(CCOC2CC(OC(F)(F)F)C2)CCC1NC(=O)COc1ccc(Cl)c(F)c1 (stereo partly drawn) [Example 49, 2-(4-chloro-3-fluoro-phenoxy)-N-[trans-3-methoxy-1-[2-[3-cis-(trifluoromethoxy)cyclobutoxy]ethyl]-4-piperidyl]acetamide] | < 1000 nM
O=C(COC1CC(CC(F)(F)F)C1)NC12CC(NC(=O)c3ccc4cc(C(F)(F)F)ccc4n3)(C1)C2 (centres unmarked) [Example 75] | < 1000 nM
N#CC1CC(OCC(=O)NC23CC(NC(=O)COc4ccc(Cl)c(F)c4)(C2)C3)C1 (centres unmarked) [Example 7, 2-(4-chloro-3-fluorophenoxy)-N-(3-(2-(3-cyanocyclobutoxy)acetamido)bicyclo[1.1.1]pentan-1-yl)acetamide] | < 1000 nM
O=C(COc1ccc(Cl)c(F)c1)NCC1CCN(C(=O)COC2CC(OC(F)(F)F)C2)C1 (stereo not drawn) [Example 60, 2-(4-chloro-3-fluorophenoxy)-N-((1-(2-(3-cis-(trifluoromethoxy)cyclobutoxy)acetyl)pyrrolidin-3-yl)methyl)acetamide] | < 1000 nM
